These results are taken from the OPERA property sets (Mansouri et al. 2018).

For orientation: melting point means the temperature of the solid-liquid transition. As a reminder, the boiling point is the temperature of boiling at a given pressure.

Settings in one data set: not given
As to `O=C(O)CCCCCCCCCCBr`, the melting point stood at 57 °C.

`Cc1ccc2[nH]c3ccccc3c2c1` displayed a boiling point of 365 °C and a melting point of 208 °C.

Compound `CC(C)=C1CC[C@@H](C)CC1=O` gave a boiling point of 224 °C and a log10 vapour pressure (mmHg) of -0.91.

As to `Nc1ccc(N)cc1`, the boiling point was 267 °C, the melting point is 146 °C and the ready biodegradability entry is “not readily biodegradable”.

`CCOc1ccc2cc(O)c(O)cc2c1` displayed a melting point of 132 °C.

Compound `CCC(C)c1cc([N+](=O)[O-])cc([N+](=O)[O-])c1OC(=O)C=C(C)C` (stereo unspecified) registered a log10 vapour pressure (mmHg) of -6.5 and a melting point of 70 °C.

For `C1CCCCC1`, the boiling point worked out at 80.7 °C, the log10 Henry constant (atm·m³/mol) is -0.824, the log10 Koa was determined as 2.74 and the log10 biodegradation half-life (days) was found to be 1.7. The log10 vapour pressure (mmHg) came to 1.99, the melting point came out at 6.6 °C and the ready biodegradability entry is reported as “not readily biodegradable”.

With `Cn1cnc2c1c(=O)[nH]c(=O)n2C`, the melting point was 357 °C.

For `CCOc1ccc(I)cc1`, the boiling point amounted to 250 °C and the melting point is 29 °C.

Turning to `COc1cccc(O)c1O`, the melting point turned out to be 42.8 °C.

The compound `C=CCN=C=S` displayed a boiling point of 152 °C, a log10 vapour pressure (mmHg) of 0.568 and a melting point of -80 °C.

The compound `C[Si](C)(C)CCCCl` registered a boiling point of 151 °C.

In turn, `CC(=O)c1ccccc1` showed a boiling point of 202 °C, a log10 Henry constant (atm·m³/mol) of -4.98, a log10 Koc (L/kg) of 1.8 and a log10 vapour pressure (mmHg) of -0.401. Besides, the melting point came out at 20 °C and the ready biodegradability entry was “readily biodegradable”.

`ICCCCCI` had a melting point of 9 °C.

For the compound `FC(Cl)(Cl)C(Cl)Cl`, the boiling point was determined as 116 °C and the melting point is -82.6 °C.

In the case of `C#CCCl`, the boiling point stood at 58 °C.

`CCCC(=O)c1ccccc1` displayed a boiling point of 228 °C and a melting point of 12 °C.

Turning to `CCCN(CCCl)c1c([N+](=O)[O-])cc(C(F)(F)F)cc1[N+](=O)[O-]`, the log10 Koc (L/kg) came out at 3.55, the log10 vapour pressure (mmHg) was -4.52 and the melting point turned out to be 42 °C.

Turning to `CN(C)CCCCCCN(C)C`, the boiling point came to 210 °C and the ready biodegradability result is given as “not readily biodegradable”.

Regarding `FC(F)(F)C(F)(F)C(F)(F)C(F)(F)C(F)(F)C(F)(F)C(F)(F)C(F)(F)F`, the boiling point is 106 °C and the melting point is -42 °C.

`CC[C@H](CC[C@@H](C)[C@H]1CC[C@H]2C3=CC=C4C[C@@H](O)CC[C@]4(C)[C@H]3CC[C@]12C)C(C)C` showed a melting point of 144 °C.

`N#Cc1ccccn1`: the boiling point is 224 °C and the melting point turned out to be 29 °C.

In turn, `Cc1nccc2ccccc12` yielded a boiling point of 248 °C and a melting point of 10 °C.

`O=C(O)[C@H](O)[C@@H](O)C(=O)O`: the ready biodegradability result is reported as “readily biodegradable”.

On to `Oc1ccc(I)cc1`, for which the melting point is 93.5 °C and the ready biodegradability entry was “not readily biodegradable”.

With `CCOC(=O)C#Cc1ccccc1`, the boiling point came to 265 °C.

Regarding `Nc1ccn([C@@H]2O[C@H](COP(=O)(O)O)[C@@H](O)[C@@H]2O)c(=O)n1`, the melting point is 233 °C.

For the compound `O=C1OC(c2cc(Br)c(O)c(Br)c2)(c2cc(Br)c(O)c(Br)c2)c2ccccc21`, the melting point amounted to 296 °C.

As for `Cc1c(N)cccc1Cl`, the boiling point was 245 °C and the melting point was 1 °C.

The compound `CCC(C)Nc1c([N+](=O)[O-])cc(C(C)(C)C)cc1[N+](=O)[O-]` (stereo unspecified) gave a log10 Koc (L/kg) of 3.98, a log10 vapour pressure (mmHg) of -4.9 and a melting point of 60 °C.

On to `Cc1ccc(N=C=Nc2ccc(C)cc2)cc1`, for which the melting point worked out at 58.5 °C.

In turn, `C(=C(c1ccccc1)c1ccccc1)c1ccccc1` yielded a melting point of 72.5 °C.

For the compound `CCCCCC(C)OC(=O)COc1ccc(Cl)c2cccnc12` (stereo unspecified), the log10 vapour pressure (mmHg) is -7.4 and the melting point is 69.4 °C.

In the case of `O=S(=O)(c1ccc(Cl)cc1)c1cc(Cl)c(Cl)cc1Cl`, the log10 vapour pressure (mmHg) is -9.62, the melting point was 147 °C and the ready biodegradability result is on record as “not readily biodegradable”.

Staying with this data set, now noted: fish.
`CCOP(=O)(OCC)Oc1cc(C)nc(C(C)C)n1` returned a log10 BCF of -0.35.

`C1CCCCC1` yielded a log10 BCF of 1.92 and a log10 biotransformation half-life (days) of -0.66.
